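Compound exposure: 48 hours, 5 concentrations, 96-well plates. GI50 = concentration required for 50% inhibition of growth.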 Active and inactive are the calls of the source. Cut-off read from the data, not from the text of the source: active = GI50 up to about 1.1 µM and inactive = higher.
Key:
Assay in all cases: growth of human tumour cells (NCI), 48 h
[1] = tested on: TK-10
[2] = tested on: SF-295
[3] = tested on: HOP-62
[4] = tested on: UO-31
[5] = tested on: SW-620
[6] = tested on: SR
[7] = tested on: OVCAR-5
[8] = tested on: OVCAR-8
[9] = tested on: MDA-MB-231
[10] = tested on: OVCAR-4
[11] = tested on: ACHN
[12] = tested on: MDA-MB-435
[13] = tested on: U-251
[14] = tested on: DU-145
[15] = tested on: COLO 205
[16] = tested on: EKVX
[17] = tested on: SNB-19
[18] = tested on: UACC-257
[19] = tested on: OVCAR-3
[20] = tested on: NCI-H522

Compound | GI50 [1] | GI50 [2] | GI50 [3] | GI50 [4] | GI50 [5] | GI50 [6] | GI50 [7] | GI50 [8] | GI50 [9] | GI50 [10] | GI50 [11] | GI50 [12] | GI50 [13] | GI50 [14] | GI50 [15] | GI50 [16] | GI50 [17] | GI50 [18] | GI50 [19] | GI50 [20]
Cc1ccc(N2C(=O)C=C(C3=C(O)C(=O)N(c4ccc(C)cc4)C3=O)C2=O)cc1 | > 100 µM (inactive) | > 100 µM (inactive) | > 100 µM (inactive) | > 100 µM (inactive) | > 100 µM (inactive) | > 100 µM (inactive) | > 100 µM (inactive) | > 100 µM (inactive) | > 100 µM (inactive) | > 100 µM (inactive) | > 100 µM (inactive) | > 100 µM (inactive) | > 100 µM (inactive) | > 100 µM (inactive) | > 100 µM (inactive) | > 100 µM (inactive) | > 100 µM (inactive) | > 100 µM (inactive) | > 100 µM (inactive) | –
O=c1cc(-c2ccccc2)nc(-n2[nH]c3c(c2=O)CCCC3)[nH]1 | 5 µM (inactive) | 4.33 µM (inactive) | – | 7.29 µM (inactive) | 4.24 µM (inactive) | 1.03 µM (active) | 92.5 µM (inactive) | – | 2.92 µM (inactive) | 1.85 µM (inactive) | 3.66 µM (inactive) | 4.59 µM (inactive) | 2.55 µM (inactive) | 1.57 µM (inactive) | 3.82 µM (inactive) | 4.94 µM (inactive) | 11 µM (inactive) | 5.86 µM (inactive) | – | 12.1 µM (inactive)
O=C(NC1=C(Cl)C(=O)c2ccccc2C1=O)c1ccc(F)cc1 | 5.09 µM (inactive) | 4.06 µM (inactive) | 13.9 µM (inactive) | – | 0.776 µM (active) | 3.66 µM (inactive) | 4.85 µM (inactive) | 5.47 µM (inactive) | 4.4 µM (inactive) | 6.67 µM (inactive) | 0.938 µM (active) | 4.45 µM (inactive) | 1.85 µM (inactive) | 4.68 µM (inactive) | 2.44 µM (inactive) | 11.8 µM (inactive) | 5.18 µM (inactive) | 1.98 µM (inactive) | 2.53 µM (inactive) | 0.456 µM (active)
CC1CCC2C(C)C(OC(=O)CCC(=O)O)OC3OC4(C)CCC1C32OO4 (configuration not stated) | 2.99 µM (inactive) | 15.8 µM (inactive) | 16.6 µM (inactive) | 1.33 µM (inactive) | 1.57 µM (inactive) | 0.519 µM (active) | 1.31 µM (inactive) | 3.47 µM (inactive) | > 100 µM (inactive) | 7.01 µM (inactive) | 4.52 µM (inactive) | 1.51 µM (inactive) | 2.98 µM (inactive) | 21.4 µM (inactive) | 1.42 µM (inactive) | 6.27 µM (inactive) | 37.6 µM (inactive) | 2.17 µM (inactive) | 5.52 µM (inactive) | –
CC1CCCCN1CC(=O)c1ccc2c(c1)Sc1ccccc1O2 (configuration not stated) | 18.7 µM (inactive) | 16.5 µM (inactive) | 15.5 µM (inactive) | 12.3 µM (inactive) | 19.1 µM (inactive) | 15.3 µM (inactive) | 18.1 µM (inactive) | 15 µM (inactive) | 24.7 µM (inactive) | 13.2 µM (inactive) | 15.3 µM (inactive) | 13.8 µM (inactive) | 14.1 µM (inactive) | 26.7 µM (inactive) | 24 µM (inactive) | 13.3 µM (inactive) | 17.9 µM (inactive) | 18.4 µM (inactive) | 14.4 µM (inactive) | –
O=C(C/N=C(\CN(c1ccccc1)c1ccccc1)Oc1c([N+](=O)[O-])cc([N+](=O)[O-])cc1[N+](=O)[O-])N1CCNCC1 | > 100 µM (inactive) | > 100 µM (inactive) | > 100 µM (inactive) | – | > 100 µM (inactive) | > 100 µM (inactive) | > 100 µM (inactive) | 61.7 µM (inactive) | > 100 µM (inactive) | > 100 µM (inactive) | > 100 µM (inactive) | > 100 µM (inactive) | > 100 µM (inactive) | > 100 µM (inactive) | > 100 µM (inactive) | > 100 µM (inactive) | > 100 µM (inactive) | > 100 µM (inactive) | > 100 µM (inactive) | > 100 µM (inactive)
